The values below come from BindingDB's records for doi:10.1096/fasebj.10.12.8903510 (Roche Bioscience, 1996).

This experiment addresses 5-hydroxytryptamine receptor 4 (Cavia porcellus, UniProt O70528).

Chain of 5-hydroxytryptamine receptor 4 (O70528 whole entry): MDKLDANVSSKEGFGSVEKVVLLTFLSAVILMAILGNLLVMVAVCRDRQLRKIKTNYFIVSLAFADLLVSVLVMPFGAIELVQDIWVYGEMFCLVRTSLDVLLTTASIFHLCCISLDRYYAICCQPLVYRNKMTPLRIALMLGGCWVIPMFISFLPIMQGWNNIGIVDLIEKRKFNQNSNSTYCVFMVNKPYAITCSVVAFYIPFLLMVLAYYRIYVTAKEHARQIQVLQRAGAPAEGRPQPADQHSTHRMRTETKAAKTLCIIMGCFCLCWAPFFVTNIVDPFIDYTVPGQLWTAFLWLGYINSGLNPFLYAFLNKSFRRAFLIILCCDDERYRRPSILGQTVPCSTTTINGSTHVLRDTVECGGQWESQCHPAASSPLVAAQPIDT

For the molecule `CCN(CC)CCOC(=O)c1cc(Cl)c(N)cc1OC` [SDZ-205557], the affinity corresponds to a Ki of 2.51 nM. For `CCCCN1CCC(CNC(=O)c2c3n(c4ccccc24)CCCO3)CC1` [SB-207266] the value was 0.39 nM; for `COc1cc(COc2cc(N)c(Cl)cc2C(=O)CCCCN2CCCCC2)cc(OC)c1` [RS-67532], 1.99 nM. As for `Cn1cc(C(=O)OCC2CCN(CCNS(C)(=O)=O)CC2)c2ccccc21` [GR 113808], the figure is 0.06 nM. For `COc1cc(N)c(Cl)cc1C(=O)OCCCN1CCCCC1` the value was 3.98 nM. Turning to `COc1[nH]c2ccc(F)cc2c1C(=O)OCC1CCN(CCNS(C)(=O)=O)CC1` [GR-125487], the affinity corresponds to a Ki of 0.03 nM. Against the preceding molecule, the Ki is about 130-fold lower.

With `CCCCN1CCC(COC(=O)c2cc(Cl)c(N)c3c2OCCO3)CC1` [CAS_121881], affinity was put at a Ki of 0.01 nM.
